Source: US8569286B2, “Notch pathway signaling inhibitor compound” (Eli Lilly and Company, priority 2011, dated 2013)

Tests used:
[1] = system: mouse Notch 1 (nuclear N1ICD signal); experiment: Notch1 N1ICD Nuclear Accumulation Cellular Imaging Assay; assay type: cell-based; conditions: HEK293ΔE12 cells, 24 hours treatment, n=7
Experimental: (§1) HEK293ΔE12 cells (HEK293 cells are engineered to stably express mouse Notch 1 cDNA coding for amino acid 1703-2183, NP_032740.3, with 23 amino acid signal peptide sequence, […] (SEQ ID NO:1), at its N-terminus) are plated at 5000 cells/well in 96 well plates, incubated in Dulbecco's Modified Eagle's Medium-high glucose with 5% fetal bovine serum at 37° C., 5% CO2 for 24 hours. Cells are treated with test compound, dosing at 10 points of 1:3 dilutions across the range of 1000 nM to 0.05 nM, and with final dimethyl sulfoxide (DMSO) concentration at 0.2%. […] Plates are scanned with ACUMEN EXPLORER™ Laser-scanning fluorescence microplate cytometer (TTP LABTECH LTD) to measure total cell nuclear count/well and total nuclear area/well with fluorescence at 655 nm-705 nm (emission of DNA bound propidium iodide) and fluorescence of antibody binding to N1ICD in nuclear region at 505 nm-530 nm. The main assay output is a ratio of total fluorescence of nuclear N1ICD to total nuclear area, the normalized nuclear N1ICD signal. […] Concentration response and the IC50 are determined by curve fitting to a four parameter logistic for the nuclear N1ICD signal, while the % cell number is plotted in the same graph for cytotoxicity profiling.

HEK293ΔE12 cells = experiment: Relative cytotoxicity profiling (% cell number) in the N1ICD imaging assay; assay type: cell-based; conditions: 24 hours treatment
Experimental: as §1

N1ICD cleavage (Notch1) = experiment: Inhibition of N1ICD cleavage in human tumor cell lines (N1ICD ELISA); assay type: cell-based; conditions: 24 hours treatment
Source text: To evaluate potency of Compound 1 in its ability to inhibit N1ICD cleavage, several human tumor cell lines are utilized. A2780 is a human ovarian cell line (Sigma-Aldrich, No. 93112519); MIA PaCa-2 is a human pancreas cell line (ATCC No. CRL-1420); BxPC-3 is a human pancreas cell line (ATCC No. CRL-1687); SW480 is a human colorectal cell line (ATCC No. CCL-228); HCT 116 is a human colorectal cell line (ATCC No. CCL-247); DLD-1 is a human colorectal cell line (ATCC No. CCL-221); MDA-MB-231 is a human mammary gland cell line (ATCC No. HTB-26); U-87 MG is a human glioblastoma cell line (ATCC No. HTB-14); A375 is a human malignant melanoma cell line (ATCC No. CRL-1619); CCRF-CEM is a human acute lymphoblastic leukemia (ALL) cell line (ATCC No. CCL-119); SUP-T1 is a human T-cell lymphoblastic leukemia cell line (ATCC No. CRL-1942); K-562 is a human chronic myelogenous leukemia (CML) cell line characterized by the presence of a fusion transcript comprised of the Bcr and Abl1 genes (ATCC No. CCL-243); Jurkat, Clone E6-1 is a human acute T-cell leukemia cell line (ATCC No. TIB-152); MOLT-3 is a human acute lymphoblastic leukemia (ALL) cell line (ATCC No. CRL-1552); MOLT-4 is a human acute lymphoblastic leukemia (ALL) cell line (ATCC No. CRL-1582); HEL 92.1.7 is a human erythroleukemia cell line (ATCC No. TIB-180). Each of the cell lines are obtained from the American Type Culture Collection (ATCC) at the ATCC number stated, except the A2780 cell line which is obtained from Sigma-Aldrich at the stated catalog number. The cells are grown in their respective culture media at 37° C. in 5% CO2 with humidity in the atmosphere. Cell culture media for A2780 human ovarian carcinoma is RPMI-1640 (without phenol red) with 2.05 mM L-glutamine, added 2 mM L-glutamine, 0.01 mg/ml insulin and 10% fetal bovine serum (FBS); for HCT 116 human colorectal carcinoma is McCoy's 5A with 1.5 mM L-glutamine, 0.075% Na-bicarbonate and 10% FBS; for SW480 human colorectal carcinoma is RPMI-1640 with 2.05 mM L-glutamine, 20 mM HEPES and 10% FBS; U-87 MG human glioblastoma is Minimal Essential Medium/Earl's Balanced Salt Solution with 2 mM L-glutamine, 0.1 mM Non-essential amino acids (NEAA), 1 mM Na-pyruvate, and 10% FBS; for MIA PaCa-2 human pancreatic carcinoma is Dulbecco's Modified Eagles Medium (DMEM) without Na-pyruvate, with high glucose ([…]), 4 mM L-glutamine, 2.5% horse serum and 10% FBS; for K-562 human CML is DMEM with high glucose ([…]), 4 mM L-glutamine, 10 mM HEPES, 0.1 mM NEAA, 1 mM Na-pyruvate and 10% FBS; for Jurkat, Clone E6-1 human acute T cell leukemia is RPMI-1640 with 2.05 mM L-glutamine, 2.5 g/L glucose, 10 mM HEPES, 1 mM Na-pyruvate, 0.075% Na-bicarbonate and 10% FBS; for A-375 human malignant melanoma and MDA-MB-231 human breast adenocarcinoma is DMEM with high glucose ([…]), 4 mM L-glutamine and 10% FBS; for BxPC-3 human pancreatic adenocarcinoma, DLD-1 human colorectal adenocarcinoma, SUP-T1 human lymphoblastic leukemia, MOLT-3 human ALL, Molt-4 human ALL, CCRF-CEM human ALL, and HEL 92.1.7 human erythroleukemia is RPMI-1640 with 2.05 mM L-glutamine, 2.5 g/L glucose, 20 mM HEPES, 1 mM Na-pyruvate, and 10% FBS. When 80-90% confluent, cells are treated with compound, dosing at 10 points of 1:3 dilutions across the range of 50 nM to 0.0025 nM, and with final dimethyl sulfoxide (DMSO) concentration at 0.01%. […]

major CYP450 enzymes = experiment: CYP450 inhibition and induction; assay type: in vitro ADME
[2] = Metabolism by liver microsomes optimized for oxidative CYP450 metabolism; assay type: in vitro ADME
[3] = In vivo pharmacokinetics, excretion and metabolism in rats
Experimental: Compound 1 was evaluated in vivo in bile-duct cannulated rats to study systemic pharmacokinetics (PK), excretion, and metabolism. In vivo 51% of the IV dose was excreted unchanged, predominately in the urine, with low (2% of parent) systemic exposure to an active N-dealkylated metabolite, 4,4,4-trifluoro-N-[(1S)-1-methyl-2-oxo-2-[[(7S)-6-oxo-5,7-dihydropyrido[2,3-d][3]benzazepin-7-yl]amino]ethyl]butanamide.

[4] = In vivo metabolism and excretion in dogs
[5] = Atropisomer equilibrium in solution (1H NMR and LC-MS); assay type: physicochemical; conditions: ambient temperature, after 24 hours
Experimental: In aqueous solutions, 8-9% of atropisomer 2 (minor atropisomer) is detected by ^1H NMR and LC-MS in equilibrium with atropisomer 1 (major atropisomer) at ambient temperature after 24 hours. In organic solvents, at ambient temperature after 24 hours, approximately 1-2% of atropisomer 2 is detected by ^1H NMR and LC-MS in equilibrium with atropisomer 1. Although detectable by ^1H NMR and LC-MS analysis, atropisomer 2 is not isolable.

In the case of `C[C@H](NC(=O)CCC(F)(F)F)C(=O)N[C@@H]1C(=O)N(CCO)c2ncccc2-c2ccccc21` [Compound 1, 4,4,4-trifluoro-N-[(1S)-2-[[(7S)-5-(2-hydroxyethyl)-6-oxo-7H-pyrido[2,3-d][3]benzazepin-7-yl]amino]-1-methyl-2-oxo-ethyl]butanamide], the IC50 [1] is reported as 0.41 nM, the “concentration up to which cell number is not affected (cytotoxicity profiling)” value (HEK293ΔE12 cells) is reported as greater than 1000 nM and the IC50 (N1ICD cleavage (Notch1); A2780 cells) is reported as 1.03 nM. For the same compound, the IC50 (N1ICD cleavage (Notch1); A-375 cells) was 0.48 nM, the IC50 (N1ICD cleavage (Notch1); BxPC-3 cells) was 0.39 nM and the IC50 (N1ICD cleavage (Notch1); CCRF-CEM cells) was 0.76 nM. The IC50 (N1ICD cleavage (Notch1); DLD-1 cells) was 0.98 nM, the IC50 (N1ICD cleavage (Notch1); HCT 116 cells) was 0.72 nM and the IC50 (N1ICD cleavage (Notch1); HEL 92.1.7 cells) was 0.23 nM. The IC50 (N1ICD cleavage (Notch1); Jurkat cells) was 5.95 nM, the IC50 (N1ICD cleavage (Notch1); K-562 cells) was 0.74 nM and the IC50 (N1ICD cleavage (Notch1); MDA-MB-231 cells) was 0.5 nM. The IC50 (N1ICD cleavage (Notch1); MIA PaCa-2 cells) was 0.71 nM, the IC50 (N1ICD cleavage (Notch1); MOLT-3 cells) was 0.61 nM and the IC50 (N1ICD cleavage (Notch1); MOLT-4 cells) was 0.74 nM. It also gave an IC50 (N1ICD cleavage (Notch1); SUP-T1 cells) of 1.24 nM, an IC50 (N1ICD cleavage (Notch1); SW480 cells) of 0.1 nM and an IC50 (N1ICD cleavage (Notch1); U-87 MG cells) of 0.28 nM. The “inhibition or induction of the major CYP450 enzymes” value (major CYP450 enzymes) was “not an inhibitor or inducer”, the “metabolism by liver microsomes” value [2] was “not metabolized to any appreciable extent” and the dose excreted unchanged ([3]; bile-duct cannulated rats, IV dose, predominately in the urine) was 51%. The “additional circulating metabolites (profiling of rat plasma)” value ([3]; rat plasma) was “absence of additional circulating metabolites”, the “major oxidative metabolites in circulation or excreta” value ([3]; rats in vivo) was “not observed” and the “clearance by excretion of parent compound” value ([4]; bile-duct intact dogs) was “appreciable clearance by excretion of parent compound”. For the same compound, the “major circulating active metabolites” value ([4]; bile-duct intact dogs) was “absence of major circulating active metabolites”, the “major oxidative metabolites in circulation or excreta” value ([4]; dogs in vivo) was “not observed” and the “atropisomer 2 (minor atropisomer) in equilibrium with atropisomer 1” value ([5]; aqueous solutions) was 8-9%. The “atropisomer 2 (minor atropisomer) in equilibrium with atropisomer 1” value ([5]; organic solvents) was 1-2%.
